Measurements reported in patent US6794383B2, “Heart muscular cell apoptosis inhibitors and remedies/preventives for heart diseases” (Takeda Chemical Industries, Ltd., priority 2000, dated 2004).

Columns and labels:
[1] = test system: primary heart muscle cells derived from newborn rats; assay: Inhibitory activity on heart muscle cell apoptosis (serum-free culture, viable cell number by WST-8); format: cell-based, rat; conditions: mean ± SD of three independent experiments; concentration required to increase the mean viable cell number by 30% vs absence of test compound; serum-free Medium 199, 4 days
From the text: Newborn rats (within 1 day after birth) were obtained from pregnant Wister rats purchased from Charles River, anesthetized under ether, and sterilized with 70% ethanol, and then their hearts were excised with tweezers. The excised hearts were washed with a phosphate-buffered physiological saline (T900; Takara) and cut into pieces with surgical scissors. These tissue pieces were washed 4 to 5 times with a phosphate-buffered physiological saline to remove a majority of blood-derived non-heart muscle cells. To the tissue pieces derived from 10 newborns, 5 ml of enzyme solution (1.25 mg trypsin (Difco) and 0.25 mg collagenase (Sigma) per ml of phosphate-buffered saline (PBS)) was added and the mixture was stirred with a stirrer at 37° C. for 15 mins. Another 2.5 ml enzyme solution was then added twice repeatedly at a 15-minutes interval. Then, Medium 199 (Gibco) containing 10% fetal calf serum (Biowiker) was added in a half volume of the enzyme solution to terminate the enzyme reaction. The cells were filtered through a Cell Strainer (Falcon) and then centrifuged at 400×g for 5 minutes, whereby the cells were collected.
The cells thus collected from 10 newborns were suspended in 50 ml Medium 199 containing 10% fetal calf serum, plated onto 100 mm Petri dishes (Iwaki) in a volume of 10 ml/dish and cultured for 1 hour in a CO2 incubator set at 5% CO2 and 37° C. The cells were then recovered, filtered through a Cell Strainer and centrifuged at 400×g for 5 minutes to collect the primary heart muscle cells derived from newborn rats.
Then, the heart muscle cells from 10 newborn rats were suspended in 2 ml low-isotonic solution (prepared by dissolving 8.29 g NH4Cl, 1.0 g KHCO3, 37 mg EDTA/2Na (ethylenediaminetetraacetic acid disodium)(Dojindo) in 1 L of water) and left for 3 minutes to disrupt erythrocytes. After 10 ml Medium 199 containing 10% fetal calf serum was added thereto, the primary heart muscle cells from newborn rats were collected by centrifugation at 400×g for 5 minutes. The cells were suspended in Medium 199 containing 10% fetal calf serum and then filtered through a cell strainer. After 0.3% trypan blue was added to, and mildly mixed with, an aliquot of the resulting cell suspension, the number of heart muscle cells was counted on an erythrocyte counting plate.
The primary heart muscle cells from newborn rats were suspended at a density of 3×10^6 cells/ml in Medium 199 containing 10% fetal calf serum, put onto a 96-well plate in a volume of 0.1 ml/well, and then cultured in a CO2 incubator set at 5% CO2 and 37° C. After the plate was stirred with a micromixer (Taiyo Kagaku Kogyo), the medium was exchanged 3 times with serum-free Medium 199, and then test compounds (Compounds 1 to 5 obtained in Reference Examples) were added thereto. The cells were cultured for additional 4 days to induce apoptosis. Then, fetal calf serum was added thereto at a concentration of 10%, and the cells were further cultured for about 17 hours in a CO2 incubator set at 5% CO2 and 37° C. Finally, the number of viable cells was determined with Cell Counting Kit (Dojindo) using WST-8 (2-(2-methoxy-4-nitrophenyl)-3-(4-nitrophenyl)-5-(2,4-disulfophenyl)-2H-tetrazolium, monosodium salt) as the coloring substrate to determine the inhibition of the heart muscle cell apoptosis.
The above-mentioned exeriment was tripicated in an independent manner. […]

[2] = test system: phosphorylated STAT3 (Tyr705) / gp130 signal; assay: Enhancing action on gp130 signal: LIF-induced phosphorylation of STAT3 (Tyr705) by immunoblotting; format: cell-based, rat; conditions: 0.01-10 μM Compound 1 with 10 U/ml human LIF, 30 minutes, primary heart muscle cells from newborn rats, FIG. 1
From the text: STAT3 (signal transducers and activators of transcription-3) is a primary positive regulatory factor involved in transmission of gp130 signal. Phosphorylation of the tyrosine residue at the 705th position (Tyr705) is essential for activation of STAT3. Accordingly, this phosphorylation can be used as an indicator of activation of STAT3, that is, of an enhancing action on gp130 signal.
Primary heart muscle cells derived from newborn rats were stimulated with a small amount of LIF (Leukemia inhibitory factor) to induce gp130 signal in the presence of a test compound (Compound 1 obtained in Reference Example 1). Phosphorylation of Tyr705 was examined by immunoblotting with an antibody specifically recognizing phosphorylated STAT3, to confirm the enhancing action of the test compound on gp130 signal.
The primary heart muscle cells derived from newborn rats, obtained in the method of Experimental Example 1, were suspended at a density of 5×10^6 cells/ml in Medium 199 containing 10% fetal bovine serum, then put to a 12-well plate (ASAHI TECHNO GLASS CORPORATION) in a volume of 2.0 ml/well, and cultured for 1 day in a 5% CO2 incubator set at 37° C. […]

Structure (SMILES)	Minimal Effective Concentration [1] [µM]	phosphorylation of STAT3 induced by LIF [2]
O=C1N/C(=C\C(=O)N2CCCCC2)Sc2ccccc21 [Compound 5, 2-[2-oxo-2-(1-piperidinyl)ethylidene]-2,3-dihydro-4H-1,3-benzothiazin-4-one]	0.06 ± 0.041	–
O=c1nc(-c2cccnc2)sc2ccccc12 [Compound 2, 2-(3-pyridyl)-4H-1,3-benzothiazin-4-one]	0.041 ± 0.018	–
CCOC(=O)/C=C1\NC(=O)c2ccccc2S1 [Compound 4, Ethyl 2-(4-oxo-3,4-dihydro-2H-1,3-benzothiazin-2-ylidene)acetate]	0.019 ± 0.0078	–
O=c1nc(-c2ccccn2)sc2ccccc12 [Compound 1, 2-(2-Pyridyl)-4H-1,3-benzothiazin-4-one]	0.015 ± 0.011	can further promote phosphorylation of STAT3
O=c1nc(-c2ccncc2)sc2ccccc12 [Compound 3, 2-(4-pyridyl)-4H-1,3-benzothiazin-4-one]	0.014 ± 0.0099	–
